These results are taken from PubChem BioAssay AID1259375 (The Scripps Research Institute Molecular Screening Center, 2018).

pIC50: −log10 of the molar value. Calls of active or inactive are those of the source. The rule behind the calls is not given here.

For this test, the target named is Microphthalmia-associated transcription factor (Homo sapiens) (UniProt O75030). The experiment in a line: MITF inhibitors by FRET titration, dose response, biochemical, high throughput (AID 1259375).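 Note: FRET between CFP-tagged and YFP-tagged MITF protein partners.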 As to conditions: FRET biochemical assay, MITF inhibition.
Sequence of Microphthalmia-associated transcription factor (Homo sapiens) (O75030 whole entry, looked up): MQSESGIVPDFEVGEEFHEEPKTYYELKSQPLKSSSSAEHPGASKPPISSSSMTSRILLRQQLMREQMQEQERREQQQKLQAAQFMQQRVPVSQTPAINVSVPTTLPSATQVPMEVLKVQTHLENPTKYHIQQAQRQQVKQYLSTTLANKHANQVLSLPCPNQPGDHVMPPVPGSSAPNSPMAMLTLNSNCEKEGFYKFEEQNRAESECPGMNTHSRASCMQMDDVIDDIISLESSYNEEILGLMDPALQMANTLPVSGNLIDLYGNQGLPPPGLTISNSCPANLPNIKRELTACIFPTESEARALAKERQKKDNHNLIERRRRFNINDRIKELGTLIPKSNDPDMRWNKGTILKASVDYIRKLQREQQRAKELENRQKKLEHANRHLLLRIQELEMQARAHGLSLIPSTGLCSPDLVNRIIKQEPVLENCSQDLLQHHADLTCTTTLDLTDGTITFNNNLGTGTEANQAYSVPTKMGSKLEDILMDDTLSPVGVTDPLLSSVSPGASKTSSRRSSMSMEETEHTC

As for `O=C(O)C1CC=CCC1C(=O)Nc1nncs1` (stereo not given), the IC50 is > 6.48 µM (inactive). `Cc1cc(C)n(C(=O)/C=C/c2ccco2)n1`: the IC50 is > 6.48 µM (inactive). For the compound `C[C@@H]1NC(=O)[C@H]2CN(C(=O)NCc3ccccc3)CCN2C1=O`, the IC50 was > 6.48 µM (inactive).

As for `O=C(OC1CCOC1=O)c1ccc(S(=O)(=O)NCc2ccco2)cc1` (stereo not given), the IC50 is > 7.1 µM (inactive). On the same count and under the same terms, the result for `OCCNc1cc(-c2cccs2)ncn1` reads > 6.01 µM (inactive). On to `O=C1N[C@H](Cc2ccccc2)C(=O)N2CCN(C(=O)NC3CCCCC3)C[C@H]12`, for which the IC50 is > 6.48 µM (inactive). Take `CN(C)c1cc(NC(=O)CNC(C)(C)C)c(O)c2c1C[C@H]1C[C@H]3[C@@H](N(C)C)C(=O)C(C(N)=O)=C(O)[C@@]3(O)C(=O)C1=C2O`: the IC50 is > 6.48 µM (inactive). `O=C(NCC(O)C(=O)N1CCOCC1)c1cccc(Nc2ccc3[nH]ncc3c2)n1` (stereo not given): the IC50 was > 6.48 µM (inactive). For `Cn1c(SCc2cc(=O)n3c(n2)sc2ccccc23)nnc1C(F)(F)F`, the IC50 is > 7.18 µM (inactive).

Consider `CC(=O)Oc1ccccc1N1C(=O)c2ccc(Oc3cccc(N)c3)cc2C1=O`, for which the pIC50 is 5.67. `CCS(=O)(=O)NCC(c1cccs1)S(=O)(=O)c1ccc(C)cc1` (stereo not given): the IC50 is > 6.6 µM (inactive). Turning to `Cc1c(NC(=S)NC(=O)/C=C/c2ccco2)cccc1C(=O)O`, the negative logarithm of the IC50 (pIC50) was 5.42. Consider `COC(=O)CSc1nnc(-c2ccco2)n1Cc1ccco1`, for which the IC50 was > 6.48 µM (inactive).

In the case of `CCc1ccc(CN2CCN(C(C)C)CC2)cc1`, the IC50 was > 6.89 µM (inactive).

`O=C1NC(=S)N/C1=C\c1ccc([N+](=O)[O-])o1`: the IC50 was > 7.74 µM (inactive).

In the case of `O=P(O)(O)C(O)(CCNC(=S)Nc1ccccc1)P(=O)(O)O`, the IC50 was > 6.83 µM (inactive). As to `OC[C@H]1OC([S-])[C@H](O)[C@@H](O)[C@@H]1O.[Au+]` (stereo not given in full), the IC50 is > 6.48 µM (inactive). Regarding `C[C@@H](OCc1ccccc1)[C@@H]1NC(=O)[C@H]2CN(C(=O)Nc3cccc(F)c3)CCN2C1=O`, the IC50 is > 6.48 µM (inactive). The same measure, in the same setting: the result for `COc1ccc2c3c(cccc13)C(=O)N(C)C2=O` reads > 6.48 µM (inactive); that for `N#Cc1c(-c2ccc3c(c2)OCO3)nc(N2CCCCC2)[nH]c1=O`, > 6.48 µM (inactive); that for `CC(C)[C@H]1NC(=O)[C@H]2CN(C(=O)NCc3ccccc3)CCN2C1=O`, > 6.48 µM (inactive). For the compound `CCN1CCc2c(sc(NC(=S)NC(=O)/C=C/c3ccco3)c2C(N)=O)C1`, the IC50 was > 6.48 µM (inactive). Turning to `C[C@H]1C(=O)N2CCN(C(=O)NCc3ccccc3)C[C@@H]2C(=O)N1C`, the IC50 was > 6.48 µM (inactive). Take `Cc1cc(CSC(=N)N)c(O)c(C)n1`: the IC50 is > 6.48 µM (inactive).

Regarding `C[C@H](O)[C@H]1NC(=O)[C@H]2CN(C(=O)NCc3ccccc3)CCN2C1=O`, the IC50 is > 6.48 µM (inactive). In the case of `O=C(/C=C/c1ccco1)NCc1cccc(CNC(=O)/C=C/c2ccco2)c1`, the IC50 is > 6.48 µM (inactive). For the compound `CN1CC(=O)N2CCN(C(=O)NC3CCCCC3)C[C@@H]2C1=O`, the IC50 is > 6.48 µM (inactive). As to `Clc1ccc(CN2CCN(Cc3c[nH]c4ccccc34)CC2)cc1`, the IC50 was > 5.86 µM (inactive). On the same count and under the same terms, the value for `C[C@@H](O)[C@@H]1NC(=O)[C@H]2CN(C(=O)NC3CCCCC3)CCN2C1=O` was > 6.48 µM (inactive); that for `CC(C)N(C(=O)COC(=O)c1cc(-c2ccco2)nc2ccccc12)C(C)C` was > 6.82 µM (inactive); that for `Cc1ccc(COc2ccc(/C=N/N=C3\NC(=O)C(CC(=O)O)S3)cc2)cc1` (stereo not given) was > 6.48 µM (inactive).

Turning to `CC(=O)NC1=NC(=O)/C(=C\c2ccc(Br)o2)S1`, the IC50 was > 6.48 µM (inactive). Same read-out and setting: the result for `Cc1cc2c(c(=O)[nH]1)C(=O)O/C2=C\c1ccco1` reads “inactive”.

`N#C/C(=C(/O)COC(=O)c1cc2c(s1)CCC2)c1nc2ccccc2[nH]1`: the IC50 is > 7.1 µM (inactive). For `O=C(/C=C/c1ccco1)NC(=S)Nc1cccc(C(=O)O)c1`, the IC50 is > 6.48 µM (inactive). Same read-out and setting: the result for `Cc1ccc(N2C(=O)C3C(C2=O)C2(CO)C=CC3(C)O2)cc1[N+](=O)[O-]` (stereo not given) reads > 6.48 µM (inactive); that for `COc1cc(C=Nc2ccc(N(C)C)cc2)cc(I)c1O`, > 6.48 µM (inactive); that for `N#C/C(=C/c1ccco1)c1cccc(F)c1`, > 6.48 µM (inactive). For the compound `NC(=O)c1cncc(-c2cccs2)c1`, the IC50 is > 6.5 µM (inactive). Turning to `C=C1c2c(Cl)ccc(O)c2C(O)=C2C(=O)[C@]3(O)C(O)=C(C(N)=O)C(=O)[C@@H](N(C)C)[C@@H]3[C@@H](O)[C@H]12`, the pIC50 is 5.59.
